Values quoted from earlier work in patent publication US20110159080A1, “COMPOSITION COMPRISING LIPOSOME-ENTRAPPED DOXORUBICIN AND METHODS OF ADMINISTRATION” (priority 2008, published 2011).

What was measured:
[1] = system: recurrent stage III or IV ovarian cancer
[2] = system: primary or secondary platinum-resistant ovarian cancer; conditions: bevacizumab 15 mg/kg every 21 days
[3] = system: platinum resistant advanced ovarian carcinoma; conditions: human, in vivo
[4] = system: persistent or recurrent epithelial ovarian cancer
[5] = system: xenotransplant models of colon cancer; conditions: nude (athymic) mice

For N.N.O=C([O-])C1(C(=O)[O-])CCC1.[Pt+2] [carboplatin], the response rate ([1]; DOXIL 30 mg/m^2 plus carboplatin AUC 5 or carboplatin alone AUC 5, every 4 weeks, p=0.02) is given as 32%, the “estimated median PFS” value ([1]; every 4 weeks) is given as 8 months and the “estimated median overall survival” value ([1]; every 4 weeks, p=0.02) is given as 18 months.

For CC[C@@]1(O)C(=O)OCc2c1cc1n(c2=O)Cc2cc3c(CN(C)C)c(O)ccc3nc2-1 [topotecan], the toxicity profile (recurrent ovarian cancer; DOXIL 50 mg/m^2 every 4 weeks, topotecan 1.5 mg/m^2/day for 5 days every 3 weeks) is given as “significant myelosuppression and alopecia”, the “median OS” value (recurrent ovarian cancer; subset with platinum-sensitive disease, p=0.008) is given as 71.1 weeks and the “median PFS” value (recurrent ovarian cancer; subset with platinum-sensitive disease, p=0.037) is given as 23.3 weeks.

For “bevacizumab: recombinant humanized monoclonal IgG1 antibody that binds to and inhibits human vascular endothelial growth factor (VEGF)”, the “6-month PFS rate” value [2] is listed as 27%, the response rate [2] is listed as 16% and the cases of perforation [3] is listed as “no cases of perforation”. The “complete responses (number of subjects)” value ([4]; 62 eligible subjects) was “two”, the “subjects surviving progression free for at least 6 months” value ([4]; 62 eligible subjects) was 40.3% and the “subjects with clinical response” value ([4]; bevacizumab 15 mg/kg IV every 21 days, 62 eligible subjects) was 21.0%. The “Grade 3 adverse events: GI (number)” value ([4]; in vivo) was 3, the “Grade 3 adverse events: coagulation (number)” value ([4]; in vivo) was 1 and the “Grade 3 adverse events: constitutional (number)” value ([4]; in vivo) was 1. For the same compound, the “Grade 3 adverse events: dyspnea (number)” value ([4]; in vivo) was 1, the “Grade 3 adverse events: hematologic (number)” value ([4]; in vivo) was 1 and the “Grade 3 adverse events: hepatic (number)” value ([4]; in vivo) was 1. For the same compound, the “Grade 3 adverse events: hypertension (number)” value ([4]; in vivo) was 6, the “Grade 3 adverse events: pain (number)” value ([4]; in vivo) was 3 and the “Grade 3 adverse events: thromboembolism (number)” value ([4]; in vivo) was 1. The “Grade 4 adverse events: proteinuria (number)” value ([4]; in vivo) was 1, the “Grade 4 adverse events: pulmonary embolus (number)” value ([4]; in vivo) was 1 and the “Grade 4 adverse events: vomiting and constipation (number)” value ([4]; in vivo) was 1. The “median PFS” value ([4]; in vivo) was 4.7 months, the median overall survival ([4]; in vivo) was 17 months and the median response duration ([4]; in vivo) was 10 months. For the same compound, the “effect on metastatic disease progression” value [5] was “inhibition of metastatic disease progression” and the “effect on microvascular growth” value [5] was “reduction in microvascular growth”.
